Each structure is given as a SMILES string.

Data on two molecules can be found in article PMC9030254, “Target Hopping from Protein Kinases to PXR: Identification of Small-Molecule Protein Kinase Inhibitors as Selective Modulators of Pregnane X Receptor from TüKIC Library” (Cells, 2022).

What all share (assay): Kinase profiling
Common to all, as to assay type: biochemical

For one assay, the target named is T1, CLK2 (Homo sapiens, UniProt P49760).
T1 construct: purchased ProQinase (Freiburg, Germany)
T1 sequence (P49760 whole entry): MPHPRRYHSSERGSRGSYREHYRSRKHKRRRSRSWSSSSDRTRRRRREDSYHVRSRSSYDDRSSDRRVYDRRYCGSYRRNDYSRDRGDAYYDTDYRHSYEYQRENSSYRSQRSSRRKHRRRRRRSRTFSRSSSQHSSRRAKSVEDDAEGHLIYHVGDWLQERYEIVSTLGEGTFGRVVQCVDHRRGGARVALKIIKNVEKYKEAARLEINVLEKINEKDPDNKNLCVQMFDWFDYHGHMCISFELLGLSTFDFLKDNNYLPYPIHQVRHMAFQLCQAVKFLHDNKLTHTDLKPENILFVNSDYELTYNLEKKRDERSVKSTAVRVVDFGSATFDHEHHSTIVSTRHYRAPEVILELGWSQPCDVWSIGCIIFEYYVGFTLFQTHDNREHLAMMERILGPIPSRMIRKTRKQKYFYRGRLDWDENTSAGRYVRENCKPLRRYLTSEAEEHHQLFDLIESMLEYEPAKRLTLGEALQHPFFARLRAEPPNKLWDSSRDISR
The method, then: (§1) The analysis was performed by ProQinase (Freiburg, Germany).

Another assay addresses T2, EPHB1 (Homo sapiens, UniProt P54762).
T2 construct: purchased ProQinase (Freiburg, Germany)
T2 sequence (P54762 18-984): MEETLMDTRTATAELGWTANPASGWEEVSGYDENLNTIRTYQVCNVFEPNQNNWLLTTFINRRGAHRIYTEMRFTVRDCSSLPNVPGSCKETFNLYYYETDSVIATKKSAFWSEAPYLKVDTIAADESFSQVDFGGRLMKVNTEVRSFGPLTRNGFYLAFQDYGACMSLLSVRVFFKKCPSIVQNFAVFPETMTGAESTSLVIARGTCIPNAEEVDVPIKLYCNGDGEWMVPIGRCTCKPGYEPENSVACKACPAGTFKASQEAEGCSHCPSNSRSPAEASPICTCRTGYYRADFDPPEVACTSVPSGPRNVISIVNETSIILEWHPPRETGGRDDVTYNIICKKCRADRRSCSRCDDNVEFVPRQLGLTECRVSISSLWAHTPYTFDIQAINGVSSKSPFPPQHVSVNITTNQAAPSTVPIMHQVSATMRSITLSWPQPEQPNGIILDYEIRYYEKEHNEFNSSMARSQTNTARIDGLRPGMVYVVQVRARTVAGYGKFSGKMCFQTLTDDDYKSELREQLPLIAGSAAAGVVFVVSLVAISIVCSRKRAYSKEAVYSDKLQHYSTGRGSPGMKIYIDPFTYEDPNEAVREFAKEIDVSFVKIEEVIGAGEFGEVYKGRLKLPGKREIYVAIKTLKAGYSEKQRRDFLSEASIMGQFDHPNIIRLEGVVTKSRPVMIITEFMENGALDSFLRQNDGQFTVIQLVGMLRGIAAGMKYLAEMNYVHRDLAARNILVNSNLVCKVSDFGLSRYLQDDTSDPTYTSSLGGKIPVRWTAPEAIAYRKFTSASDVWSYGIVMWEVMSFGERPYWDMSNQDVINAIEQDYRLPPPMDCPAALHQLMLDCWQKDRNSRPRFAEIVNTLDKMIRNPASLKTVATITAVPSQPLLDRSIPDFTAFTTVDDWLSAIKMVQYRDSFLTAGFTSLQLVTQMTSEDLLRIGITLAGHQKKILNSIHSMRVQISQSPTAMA
On the procedure: as §1

In a further assay the target is T3, ERK5 (Homo sapiens, UniProt Q13164).
T3 construct: purchased ProQinase (Freiburg, Germany)
T3 sequence (Q13164 whole entry): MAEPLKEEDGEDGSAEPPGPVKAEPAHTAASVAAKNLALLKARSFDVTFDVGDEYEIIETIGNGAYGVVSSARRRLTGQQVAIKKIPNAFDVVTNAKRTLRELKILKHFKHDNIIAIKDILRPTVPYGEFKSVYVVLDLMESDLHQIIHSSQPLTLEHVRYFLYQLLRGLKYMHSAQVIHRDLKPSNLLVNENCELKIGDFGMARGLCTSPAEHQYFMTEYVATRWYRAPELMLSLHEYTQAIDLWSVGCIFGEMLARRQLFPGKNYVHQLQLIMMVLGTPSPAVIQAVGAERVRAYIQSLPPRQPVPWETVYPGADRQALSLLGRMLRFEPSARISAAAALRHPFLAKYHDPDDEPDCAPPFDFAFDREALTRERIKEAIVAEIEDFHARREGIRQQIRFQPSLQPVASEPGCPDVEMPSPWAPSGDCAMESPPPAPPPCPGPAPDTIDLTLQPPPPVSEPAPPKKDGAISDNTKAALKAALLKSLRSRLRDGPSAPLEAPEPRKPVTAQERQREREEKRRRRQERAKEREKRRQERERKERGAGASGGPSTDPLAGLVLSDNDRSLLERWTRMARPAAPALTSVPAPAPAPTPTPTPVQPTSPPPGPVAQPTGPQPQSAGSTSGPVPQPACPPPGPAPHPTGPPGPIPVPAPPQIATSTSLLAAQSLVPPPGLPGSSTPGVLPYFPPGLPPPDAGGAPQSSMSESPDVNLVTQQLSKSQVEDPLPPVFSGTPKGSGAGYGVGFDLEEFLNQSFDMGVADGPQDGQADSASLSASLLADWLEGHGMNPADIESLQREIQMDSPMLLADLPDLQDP
The method, then: as §1

Another assay concerns the target T4, MAPKAPK3 (Homo sapiens, UniProt Q16644).
T4 construct: purchased ProQinase (Freiburg, Germany)
On the procedure: as §1

A further assay concerns the target T5, MATK (Homo sapiens, UniProt P42679).
T5 construct: purchased ProQinase (Freiburg, Germany)
T5 sequence (P42679 1-507): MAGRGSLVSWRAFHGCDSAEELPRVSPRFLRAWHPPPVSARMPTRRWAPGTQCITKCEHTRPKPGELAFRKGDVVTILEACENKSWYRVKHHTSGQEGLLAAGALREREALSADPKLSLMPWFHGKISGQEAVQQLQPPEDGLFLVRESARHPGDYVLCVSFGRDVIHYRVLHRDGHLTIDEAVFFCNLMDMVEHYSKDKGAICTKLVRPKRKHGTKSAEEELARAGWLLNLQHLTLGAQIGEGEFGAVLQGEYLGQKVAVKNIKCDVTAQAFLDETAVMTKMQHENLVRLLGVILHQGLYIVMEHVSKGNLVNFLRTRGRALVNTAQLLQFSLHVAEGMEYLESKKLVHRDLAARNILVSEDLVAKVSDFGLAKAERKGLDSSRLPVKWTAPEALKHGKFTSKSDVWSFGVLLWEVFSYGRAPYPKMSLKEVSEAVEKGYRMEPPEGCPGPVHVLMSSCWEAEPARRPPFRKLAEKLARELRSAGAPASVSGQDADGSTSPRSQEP
On the procedure: as §1

The target of a further assay is T6, MERTK (Homo sapiens, UniProt Q12866).
T6 construct: purchased ProQinase (Freiburg, Germany)
T6 sequence (Q12866 21-999): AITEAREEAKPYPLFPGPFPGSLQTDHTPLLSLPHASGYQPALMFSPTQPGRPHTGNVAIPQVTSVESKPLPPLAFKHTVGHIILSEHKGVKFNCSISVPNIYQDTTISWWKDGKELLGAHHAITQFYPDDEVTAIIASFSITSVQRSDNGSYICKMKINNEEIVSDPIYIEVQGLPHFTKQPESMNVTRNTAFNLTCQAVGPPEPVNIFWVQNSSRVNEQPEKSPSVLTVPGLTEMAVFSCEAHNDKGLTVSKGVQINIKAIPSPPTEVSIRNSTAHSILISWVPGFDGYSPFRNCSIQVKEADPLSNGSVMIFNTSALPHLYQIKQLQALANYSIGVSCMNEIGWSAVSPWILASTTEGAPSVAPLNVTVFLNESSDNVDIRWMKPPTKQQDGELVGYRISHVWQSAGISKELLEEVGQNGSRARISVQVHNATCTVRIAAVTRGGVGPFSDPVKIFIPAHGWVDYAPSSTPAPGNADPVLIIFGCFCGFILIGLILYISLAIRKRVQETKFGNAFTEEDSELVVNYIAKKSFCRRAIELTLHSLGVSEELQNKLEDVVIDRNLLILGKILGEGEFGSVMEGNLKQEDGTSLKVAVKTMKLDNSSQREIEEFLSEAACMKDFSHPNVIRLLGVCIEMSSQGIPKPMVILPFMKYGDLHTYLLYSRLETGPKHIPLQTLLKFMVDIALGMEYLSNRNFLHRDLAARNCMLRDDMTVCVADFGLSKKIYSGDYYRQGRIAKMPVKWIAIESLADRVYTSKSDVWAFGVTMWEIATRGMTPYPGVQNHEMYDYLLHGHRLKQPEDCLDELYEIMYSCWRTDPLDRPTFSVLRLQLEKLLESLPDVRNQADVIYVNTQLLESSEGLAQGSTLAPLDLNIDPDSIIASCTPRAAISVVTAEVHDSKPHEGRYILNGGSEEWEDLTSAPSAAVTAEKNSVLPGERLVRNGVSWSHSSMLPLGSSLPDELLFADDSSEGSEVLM
The method, then:
as §1

T4 sequence (Q16644 whole entry): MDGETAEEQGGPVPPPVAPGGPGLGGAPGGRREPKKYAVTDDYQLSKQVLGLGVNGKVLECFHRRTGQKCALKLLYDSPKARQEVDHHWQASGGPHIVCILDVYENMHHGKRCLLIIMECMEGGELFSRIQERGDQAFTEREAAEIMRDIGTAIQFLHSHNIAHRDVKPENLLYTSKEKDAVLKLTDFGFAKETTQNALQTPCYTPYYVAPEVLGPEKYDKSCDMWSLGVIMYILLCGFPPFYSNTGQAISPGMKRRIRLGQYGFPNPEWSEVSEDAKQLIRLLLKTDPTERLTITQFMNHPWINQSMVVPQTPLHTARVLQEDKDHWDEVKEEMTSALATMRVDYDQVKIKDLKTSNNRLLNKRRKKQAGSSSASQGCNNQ

In general, inhibition refers to the change of the read-out against control, counted positive when it falls. For `O=C(Cc1ccccc1)Nc1ccc(F)c(Nc2ccc3c(c2)CCCCC3=O)c1` [Compound 100], the Residual activity on CLK2 (1.0E-05 M) is 107 % of control; on CLK2 (1.0E-06 M) it was 117 % of control; on EPHB1 (1.0E-05 M) it was 103 % of control; at EPHB1 (1.0E-06 M) it was 113 % of control; on ERK5 (1.0E-05 M), 103 % of control; on ERK5 (1.0E-06 M), 80 % of control. The Residual activity at MAPKAPK3 (1.0E-05 M) was 50 % of control; at MAPKAPK3 (1.0E-06 M) it was 109 % of control; on MATK (1.0E-05 M) it was 86 % of control; on MATK (1.0E-06 M) it was 101 % of control; at MERTK (1.0E-05 M), 73 % of control; on MERTK (1.0E-06 M), 103 % of control. Also, the inhibition at 10 µM at MAPKAPK3 (10 µM) was ≥ 50%.
With `O=C(Nc1ccc(F)c(Nc2ccc3c(c2)CCCCC3=O)c1)c1cccc(F)c1` [Compound 109], the Residual activity at CLK2 (1.0E-05 M) is on record as 103 % of control; on CLK2 (1.0E-06 M), 112 % of control; at EPHB1 (1.0E-05 M), 95 % of control; on EPHB1 (1.0E-06 M), 113 % of control; on ERK5 (1.0E-05 M), 93 % of control; at ERK5 (1.0E-06 M), 90 % of control. In addition, the Residual activity on MAPKAPK3 (1.0E-05 M) is reported as 65 % of control; on MAPKAPK3 (1.0E-06 M) it was 98 % of control; on MATK (1.0E-05 M) it was 95 % of control; at MATK (1.0E-06 M) it was 94 % of control; at MERTK (1.0E-05 M) it was 85 % of control; on MERTK (1.0E-06 M), 101 % of control.
